This is an account of results in paper PMC8313326, “Phytochemical Analysis and Evaluation of Biological Activity of Lawsonia inermis Seeds Related to Alzheimer's Disease” (Evidence-based Complementary and Alternative Medicine : eCAM, 2021).

In general, IC50 refers to the concentration needed to halve the response being measured.

Read-outs that look alike come from different tables or passages of the source.

One test relates to acetylcholinesterase. Particulars: cited from earlier work.
Test [1] has as its target T1, butyrylcholinesterase (BChE, E.C. 3.1.1.8) (Equus caballus, UniProt P81908).
T1 construct: butyrylcholinesterase (BChE, E.C. 3.1.1.8, from equine serum); purchased Sigma-Aldrich; host or cells: equine serum
As to the kind of experiment: biochemical. From the text:
(§1) Acetylcholinesterase (AChE, E.C. 3.1.1.7, Type V-S, lyophilized powder, from electric eel, 1000 units), butyrylcholinesterase (BChE, E.C. 3.1.1.8, from equine serum), acetylthiocholine iodide (ATCI), and 5,5-dithiobis-2-nitrobenzoic acid (DTNB) were purchased from Sigma-Aldrich. Potassium dihydrogen phosphate, dipotassium hydrogen phosphate, potassium hydroxide, and sodium hydrogen carbonate were obtained from Fluka. Solvents for the extraction and column chromatography (CC) were of technical grade and redistilled before use. Deuterated solvents (100 atom % D) were obtained from Sigma-Aldrich.
(§2) In vitro anti-ChEI activity was performed against acetylcholinesterase (AChE, E.C. 3.1.1.7, Type V-S, lyophilized powder, from electric eel, 1000 units) and butyrylcholinesterase (BChE, E.C. 3.1.1.8, from equine serum) using the modified Ellman's method. […] Each well consisted of 50 μL potassium phosphate buffer (KH2PO4/K2HPO4, 0.1 M, pH 8), 25 μL prepared sample as described above, and AChE enzyme (25 μL) with a final concentration of 0.22 units/mL in the buffer. They were preincubated for 15 min at room temperature, and then, 125 μL DTNB (3 mM in buffer) was added to the mixture. […] In parallel, a blank containing all components without enzyme was used in order to account for the nonenzymatic reaction. […] The IC50 values were determined graphically from log concentration vs. % of inhibition curves. All experiments were performed in triplicate. BChE inhibition assay was performed in the same method.

Test [2] has as its target T2, acetylcholinesterase (AChE, E.C. 3.1.1.7, Type V-S) (Electrophorus electricus, UniProt O42275).
T2 construct: Type V-S, lyophilized powder, from electric eel; purchased Sigma-Aldrich; host or cells: electric eel
In words: biochemical.
Text: as §1, §2

Another test deals with BChE. Also noted: method as in PMID 24354178. Particulars: cited from earlier work.
Test [3] can be described thus: Antioxidant activity by DPPH test. Particulars: 30 min, room temperature, dark, 517 nm.
Method: Several concentrations of the test fraction in MeOH were prepared. Aliquots of different concentrations of the fraction (1 mL) were added to the DPPH methanolic solution (1.0 mL, 0.1 mM), and the mixtures were shaken vigorously and left for 30 min at room temperature in the dark.
In the same procedure, butylated hydroxyanisole (BHA) was used as the positive control. The DPPH radical scavenging activity of the fractions was expressed as IC50 (μg/mL), which is obtained from linear regression plot between concentrations of the test fractions and percent inhibitions.

T2 sequence (O42275 24-633): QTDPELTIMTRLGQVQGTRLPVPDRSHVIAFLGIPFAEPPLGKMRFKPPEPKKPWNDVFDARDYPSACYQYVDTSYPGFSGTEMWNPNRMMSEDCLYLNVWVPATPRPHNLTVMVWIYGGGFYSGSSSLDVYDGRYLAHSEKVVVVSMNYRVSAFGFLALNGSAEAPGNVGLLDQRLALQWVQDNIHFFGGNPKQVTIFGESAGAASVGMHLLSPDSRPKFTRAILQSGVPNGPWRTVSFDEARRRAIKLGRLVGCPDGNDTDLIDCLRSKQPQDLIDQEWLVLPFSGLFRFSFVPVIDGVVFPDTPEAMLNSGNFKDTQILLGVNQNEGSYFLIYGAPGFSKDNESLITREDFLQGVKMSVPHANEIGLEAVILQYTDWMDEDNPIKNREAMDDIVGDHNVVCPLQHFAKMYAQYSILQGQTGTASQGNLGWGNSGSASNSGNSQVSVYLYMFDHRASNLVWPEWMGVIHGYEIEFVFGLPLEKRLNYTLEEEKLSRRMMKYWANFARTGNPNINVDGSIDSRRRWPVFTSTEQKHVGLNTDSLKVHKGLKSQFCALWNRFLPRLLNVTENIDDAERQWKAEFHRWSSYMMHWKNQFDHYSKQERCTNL
T1 sequence (P81908 whole entry): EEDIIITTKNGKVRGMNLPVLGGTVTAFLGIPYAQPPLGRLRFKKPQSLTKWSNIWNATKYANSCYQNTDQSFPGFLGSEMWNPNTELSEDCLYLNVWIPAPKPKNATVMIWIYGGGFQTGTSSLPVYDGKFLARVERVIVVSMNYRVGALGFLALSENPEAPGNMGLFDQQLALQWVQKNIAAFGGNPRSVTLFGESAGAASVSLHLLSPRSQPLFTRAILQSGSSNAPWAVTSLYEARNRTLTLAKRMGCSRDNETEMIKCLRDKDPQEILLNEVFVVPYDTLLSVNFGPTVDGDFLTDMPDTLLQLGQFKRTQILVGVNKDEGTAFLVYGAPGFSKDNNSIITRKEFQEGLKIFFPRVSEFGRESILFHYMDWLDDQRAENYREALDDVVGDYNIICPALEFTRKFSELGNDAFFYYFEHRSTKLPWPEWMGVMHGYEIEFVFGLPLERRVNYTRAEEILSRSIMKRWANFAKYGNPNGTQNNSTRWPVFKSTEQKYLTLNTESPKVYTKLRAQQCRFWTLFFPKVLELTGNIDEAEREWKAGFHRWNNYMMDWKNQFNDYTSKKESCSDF

Regarding `CNC(=O)Oc1ccc2c(c1)[C@]1(C)CCN(C)[C@@H]1N2C` [physostigmine], the “inhibitory activity against acetylcholinesterase” value in the test on acetylcholinesterase is recorded as “significant inhibitory activity”.
Turning to `C=C(C)[C@@H]1CC[C@]2(C(=O)O)CC[C@]3(C)[C@H](CC[C@@H]4[C@@]5(C)CC[C@H](O)C(C)(C)[C@@H]5CC[C@]43C)[C@@H]12` [compound 4, Betulinic acid], the 50% inhibitory concentration (IC50) in test [1] and in test [2] was more than 100 µM in each case.
On to hydroperoxy-24-vinylcholesterol, for which the BChE inhibitory activity result in the test with BChE is on record as “selective BChE inhibitory activity”.
As for `COc1ccc(C(C)=O)c(O)c1` [paeonol], the BChE inhibitory activity result in the test with BChE is recorded as “selective BChE inhibitory activity”.
Consider `CC1(C)CC[C@]2(C(=O)O)CC[C@]3(C)C(=CC[C@@H]4[C@@]5(C)CC[C@H](O)C(C)(C)[C@@H]5CC[C@]43C)[C@@H]2C1` [compound 5, Oleanolic acid], for which, in test [1] (BChE IC50, isolated compounds, mean ± SD, three independent experiments), the IC50 came to 72.2 ± 0.42 µM.
As for `CN1CC[C@@]23C=C[C@H](O)C[C@@H]2Oc2c(O)ccc(c23)C1` [sanguinine], in the test with acetylcholinesterase, the “inhibitory activity against acetylcholinesterase” value was “significant inhibitory activity”.
With `CC1(C)CC[C@]2(C(=O)O)CC[C@]3(C)C(=CCC4[C@@]5(C)CC[C@H](OC(=O)/C=C/c6ccc(O)cc6)C(C)(C)C5CC[C@]43C)C2C1` (stereo partly drawn) [compound 3, 3-O-(Z)-Coumaroyl oleanolic acid], the IC50 was more than 100 µM in test [1] (isolated compounds, mean ± SD, three independent experiments, read-out: BChE IC50) and more than 100 µM in test [2] (isolated compounds, mean ± SD, three independent experiments, read-out: AChE IC50).
Take `COc1ccc(O)c(C(C)(C)C)c1` [BHA, butylated hydroxyanisole]: in test [3], the “DPPH free radical scavenging IC50” value amounted to 3.79 ± 0.37 µg/mL.
On to `CC(=O)O[C@H]1CC[C@@]2(C)C(CC[C@]3(C)C2CC=C2C4CC(C)(C)CC[C@]4(C(=O)O)CC[C@]23C)C1(C)C` (stereo partly drawn) [compound 2, 3-O-β-Acetyloleanolic acid], for which the results for the IC50 in test [1] and in test [2] were 77.13 ± 0.01 µM and more than 100 µM, respectively.
In the case of `COc1ccc2c3c1O[C@H]1C[C@@H](O)C=C[C@@]31CCN(C)C2` [galantamine], the “inhibitory activity against acetylcholinesterase” value in the test with acetylcholinesterase is “significant inhibitory activity”.
With `CC[C@H](CC[C@@H](C)[C@H]1CC[C@H]2[C@@H]3CC=C4C[C@@H](O)CC[C@]4(C)[C@H]3CC[C@]12C)C(C)C` [compound 1, β-Sitosterol], the half-maximal inhibitory concentration (IC50) in test [1] and in test [2] was more than 100 µM in each case.
